# Results taken from patent US20110002843A1, “METHOD OF DETECTING MYOCARDIAL DYSFUNCTION IN PATIENTS HAVING A HISTORY OF ASTHMA OR BRONCHOSPASM” (priority 2005, published 2011).
# How the values were obtained:
# β-adrenergic receptors = experiment: Affinity for β-adrenergic receptors; type: binding
# [1] = Isolated and denervated atrial preparations, rate
# A1 adenosine receptor = target: T1, A1 adenosine receptor (Cavia porcellus, UniProt P47745); experiment: Langendorff guinea pig heart preparation, prolongation of stimulus-QRS interval (negative dromotropy)
# T1 sequence (P47745 1-326): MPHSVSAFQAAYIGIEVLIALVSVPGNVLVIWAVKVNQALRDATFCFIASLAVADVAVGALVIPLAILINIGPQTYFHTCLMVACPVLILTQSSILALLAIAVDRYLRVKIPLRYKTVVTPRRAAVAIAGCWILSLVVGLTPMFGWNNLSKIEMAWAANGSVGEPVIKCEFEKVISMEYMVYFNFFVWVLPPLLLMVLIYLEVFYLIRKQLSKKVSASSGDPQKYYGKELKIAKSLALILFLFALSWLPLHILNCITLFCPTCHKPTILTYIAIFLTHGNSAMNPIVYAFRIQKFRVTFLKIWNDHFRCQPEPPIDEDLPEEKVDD
# [2] = Dose-selection study of coronary hyperemia (CBFV by Doppler guide wire) in non-asthmatic patients at cardiac catheterization; conditions: for % of CBFVR at peak Mean ± SD: CBFVR set by IC adenosine
# Protocol: Coronary blood flow velocity reserve (CBFVR) was established by intracoronary (IC) bolus injections of adenosine just prior to administration of binodenoson to allow a direct comparison of the magnitude of responses.
# Patients presenting for cardiac catheterization were screened for eligibility and provided informed consent prior to sedation. Final eligibility was determined by the investigator during diagnostic catheterization.
# Following completion of the diagnostic catheterization procedure and confirmation of all eligibility criteria, the Doppler guide wire was introduced into an accessible coronary artery and manipulated until a stable signal was obtained.
# Drug administration: All usual catheterization procedural medications including IC nitroglycerin, heparin, anxiolytics and analgesics, were allowed. […] Binodenoson doses were then introduced into a peripheral vein via an indwelling catheter.
# Measurements: Coronary blood flow velocity (CBFV) was measured as continuous pulsatile (systolic and diastolic) velocity (cm/sec) with the Doppler guide wire introduced via a guiding catheter. HR was derived from the ECG signal. SBP and diastolic blood pressure (DBP) were recorded directly from the catheter sheath. For each IC adenosine injection, CBFVR was calculated by dividing the peak post-injection CBFV value by the respective baseline CBFV value. Each patient's maximal calculated CBFVR was used as a benchmark to which CBFV responses to binodenoson were compared. For each binodenoson dose, baseline CBFV (post-IC adenosine), peak CBFV, time following dose start time to achieve peak CBFV and percents of CBFVR (calculated as the ratio of CBFV change from baseline following binodenoson administration vs CBFVR) at each point were calculated. Rate pressure product (RPP) and coronary vascular resistance (CVR) were derived at each time point (see formulas in Table 10). […] Vital signs were measured again approximately 3 to 4 hours after dosing or prior to hospital discharge. Patients returned for a follow-up visit 2 to 4 days following catheterization that included vital signs, an abbreviated physical examination, a 12-lead ECG, blood chemistry and hematology assessments and an assessment of any late-emerging adverse events.
# Adverse events were monitored throughout the study.
# Statistical analyses: All pharmacodynamic and safety data were analyzed using the intent-to-treat (ITT) population, which included all patients who received any amount of study drug. A paired t test was used to assess the significance of within-treatment differences (peak vs baseline) in CBFV, vital signs and calculated CVR and RPP; repeated comparisons were corrected using the Bonferroni-Holm method. The statistical significance of differences among treatment groups was evaluated using an analysis of variance (ANOVA) model that included treatment and investigator interactions.
# muscarinic receptors = experiment: Affinity for muscarinic receptors; type: binding
# Adenosine Receptor A1 [3] = target: T2, Adenosine Receptor A1 (Cavia porcellus, UniProt P47745); experiment: G.P. Right Atrium (Negative Inotropy) bioassay; design: species or system guinea pig
# T2 construct: prepared guinea pig assays for binodenoson; from tissue; host or cells: isolated guinea pig right / left atrium
# T2 sequence (P47745 1-326): T1 sequence (P47745 1-326)
# Text: (§1) It is further preferable to use compounds that are selective for the A2A receptor over the A2B receptor. Additional methods are known in the art for performing bioassays and are useful to identify selectivity to the A2B receptor as well as confirming selectivity and potency in vivo. Such bioassays are typically performed prior to animal and human trials.
# Adenosine Receptor A1 [4] = target: T2, Adenosine Receptor A1; experiment: G.P. Left Atrium (Negative Inotropy) bioassay; design: species or system guinea pig
# Text: as §1
# [5] = iv infusion 0.3 μg/kg/min × 3 min
# [6] = iv infusion 0.5 μg/kg/min × 3 min
# [7] = iv infusion 1 μg/kg/min × 3 min
compound,measurement,setting,value
"Nc1nc(N/N=C/C2CCCCC2)nc2c1ncn2[C@@H]1O[C@H](CO)[C@@H](O)[C@H]1O (stereo in doubt) [Binodenoson, 2-{2-[(Cyclohexyl)methylene]hydrazino}adenosine]",affinity,β-adrenergic receptors,no affinity
same,atrial rate,[1],did not increase the rate
same,EC50,A1 adenosine receptor,3.5 µM
same,maximal coronary hyperemia relative to CBFVR,"[2]; 1.5 and 3 μg/kg doses, infused over 3 minutes or as boluses",equivalent to CBFVR
same,onset of coronary hyperemic responses,[2]; after drug administration,evident within seconds of drug administration
same,"time for mean SBP, DBP, CVR, RPP and HR to return to near-baseline levels",[2]; all doses,approximately 15 minutes
same,time for CBFV to achieve nearly maximal levels,[2]; all treatment groups,≤ 3 min
same,time of mean peak CBFV response,[2]; all treatment groups,≤ 6 min
same,adverse events rated mild in intensity,"[2]; both, human, in vivo",84%
same,adverse events rated moderate in intensity,"[2]; both, human, in vivo",15%
same,patients with decreases in SBP <80 mmHg or DBP <45 mmHg per group,"[2]; both, human, in vivo",7-15%
same,patients with hypotension (SBP decrease >20 mmHg or DBP decrease >15 mmHg) per dose group,"[2]; both, human, in vivo",50-71%
same,serious adverse events during the study,"[2]; both, human, in vivo",Seven serious adverse events occurred in 6 patients
same,time for CBFV to return fully to baseline,[2]; extrapolation of the decaying CBFV responses,≤ 30 min
same,ECG changes,"[2]; human, in vivo",no adverse changes or trends in ECGs
same,tolerability,"[2]; human, in vivo",well tolerated
same,% of CBFVR at peak Range,[2]; iv bolus 1.5 μg/kg,45.8-156.6%
same,CVR Maximum (mean ± SD),[2]; iv bolus 1.5 μg/kg,1.7 ± 0.8 cm*mmHg/sec
same,Duration (min) of hyperemia ≧85% of CBFVR Mean ± SD,[2]; iv bolus 1.5 μg/kg,7.4 ± 6.86 min
same,Duration (min) of hyperemia ≧85% of CBFVR Range,[2]; iv bolus 1.5 μg/kg,1 to 21 min
same,Peak CBFV Mean ± SD,[2]; iv bolus 1.5 μg/kg,54.0 ± 19.9 cm/sec
same,Peak CBFV Range,[2]; iv bolus 1.5 μg/kg,21-96 cm/sec
same,Time of peak CBFV Mean ± SD,[2]; iv bolus 1.5 μg/kg,4.5 ± 3.7 min
same,Time of peak CBFV Range,[2]; iv bolus 1.5 μg/kg,1 to 15 min
same,% of CBFVR at peak Mean ± SD,[2]; iv bolus 1.5 μg/kg,90.6 ± 23.7%
same,Duration (min) of hyperemia ≧85% of CBFVR Mean ± SD,"[2]; iv bolus 1.5 μg/kg, listed as binodenoson",7.4 ± 6.86 min
same,% of CBFVR at peak Range,[2]; iv bolus 3 μg/kg,44.4-130.5%
same,CVR Maximum (mean ± SD),[2]; iv bolus 3 μg/kg,1.6 ± 0.4 cm*mmHg/sec
same,Duration (min) of hyperemia ≧85% of CBFVR Mean ± SD,[2]; iv bolus 3 μg/kg,12.3 ± 9.59 min
same,Duration (min) of hyperemia ≧85% of CBFVR Range,[2]; iv bolus 3 μg/kg,2 to 39 min
same,Peak CBFV Mean ± SD,[2]; iv bolus 3 μg/kg,55.8 ± 14.6 cm/sec
same,Peak CBFV Range,[2]; iv bolus 3 μg/kg,35-94 cm/sec
same,Time of peak CBFV Mean ± SD,[2]; iv bolus 3 μg/kg,6.0 ± 3.8 min
same,Time of peak CBFV Range,[2]; iv bolus 3 μg/kg,1 to 14 min
same,% of CBFVR at peak Mean ± SD,[2]; iv bolus 3 μg/kg,99.9 ± 22.1%
same,Duration (min) of hyperemia ≧85% of CBFVR Mean ± SD,"[2]; iv bolus 3 μg/kg, listed as binodenoson",12.3 ± 9.59 min
same,% of CBFVR at peak Range,[2]; [5],40.0-124.5%
same,Duration (min) of hyperemia ≧85% of CBFVR Mean ± SD,[2]; [5],3.1 ± 1.97 min
same,Duration (min) of hyperemia ≧85% of CBFVR Range,[2]; [5],1 to 8 min
same,Peak CBFV Mean ± SD,[2]; [5],55.2 ± 21.0 cm/sec
same,Peak CBFV Range,[2]; [5],17-122 cm/sec
same,Time of peak CBFV Mean ± SD,[2]; [5],4.3 ± 2.8 min
same,Time of peak CBFV Range,[2]; [5],1 to 12 min
same,% of CBFVR at peak Mean ± SD,[2]; [5],83.5 ± 19.4%
same,CVR Maximum (mean ± SD),"[2]; iv infusion 0.3 μg/kg/min × 3 min, CVR = ([SBP − DBP]/3 + DBP)/CBFV",1.7 ± 0.6 cm*mmHg/sec
same,% of CBFVR at peak Range,[2]; [6],52.2-288.1%
same,CVR Maximum (mean ± SD),[2]; [6],1.9 ± 0.7 cm*mmHg/sec
same,Duration (min) of hyperemia ≧85% of CBFVR Mean ± SD,[2]; [6],5.3 ± 4.53 min
same,Duration (min) of hyperemia ≧85% of CBFVR Range,[2]; [6],1 to 14 min
same,Peak CBFV Mean ± SD,[2]; [6],49.6 ± 20.4 cm/sec
same,Peak CBFV Range,[2]; [6],26-135 cm/sec
same,Time of peak CBFV Mean ± SD,[2]; [6],5.4 ± 5.9 min
same,Time of peak CBFV Range,[2]; [6],1 to 30 min
same,% of CBFVR at peak Mean ± SD,[2]; [6],95.0 ± 40.4%
same,% of CBFVR at peak Range,[2]; [7],66.5-144.5%
same,CVR Maximum (mean ± SD),[2]; [7],1.7 ± 0.6 cm*mmHg/sec
same,Duration (min) of hyperemia ≧85% of CBFVR Mean ± SD,[2]; [7],10.9 ± 8.54 min
same,Duration (min) of hyperemia ≧85% of CBFVR Range,[2]; [7],1 to 24 min
same,Peak CBFV Mean ± SD,[2]; [7],53.1 ± 14.8 cm/sec
same,Peak CBFV Range,[2]; [7],29-81 cm/sec
same,Time of peak CBFV Mean ± SD,[2]; [7],5.8 ± 3.8 min
same,Time of peak CBFV Range,[2]; [7],1 to 13 min
same,% of CBFVR at peak Mean ± SD,[2]; [7],100.9 ± 22.1%
same,affinity,muscarinic receptors,no affinity
same,EC50,Adenosine Receptor A1 [3],21 µM
same,EC50,Adenosine Receptor A1 [4],38.9 µM
